A short description of series [1]: Plasma stability assay, rat plasma. It is filed as in vitro ADME. Particulars: for % compound remaining at last time-point, plasma: 2.0 μM, 120 min; for half-life at 2 μM: n ≥ 3, read-out: plasma t1/2. The method, then:
10 mM DMSO stock solution of test compound (39 or 50) was diluted 50-fold with DMSO/H2O (1:1) and incubated at 37 °C for 2 h with mouse or rat plasma added with 5% DMSO (preheated at 37 °C for 10 min). The final compound’s concentration was 2.0 μM. At each time point (0, 5, 15, 30, 60, and 120 min), 50 μL of incubation mixture was diluted with 150 μL cold CH3CN spiked with 200 nM of warfarin, as the internal standard, followed by centrifugation at 3.270g for 20 min. The supernatant was further diluted with H2O (1:1) and analyzed by LC–MS/MS on a Waters ACQUITY UPLC-MS TQD system consisting of a triple quadrupole detector (TQD) mass spectrometer equipped with an electrospray ionization interface and a photodiode array eλ detector (PDA) from Waters Inc. (Milford, MA, USA). Electrospray ionization was applied in positive mode. Compound-dependent parameters as MRM transitions and collision energy were developed for each compound. The analyses were run on an ACQUITY UPLC BEH C18 (50 × 2.1 mm ID, particle size 1.7 μm) with a VanGuard BEH C18 precolumn (5 × 2.1 mm ID, particle size 1.7 μm) at 40 °C, using H2O + 0.1% HCOOH (A) and CH3CN + 0.1% HCOOH (B) as the mobile phase. The percentage of the test compound remaining at each time point relative to t = 0 was calculated by the response factor on the basis of the internal standard peak area. The percentage of test compound versus time was plotted and fitted by GraphPad Prism (GraphPad Software, Version 5 for Windows, CA, USA, www.graphpad.com) to estimate the compound’s half-life (t1/2), which was reported as mean value along with the standard deviation (n = 3).

Series [2] is described as follows: Liver microsomal stability assay (NADPH), mouse. It is filed as in vitro ADME. To be noted: for half-life at 4.6 μM: male, CD1, pH 7.5, mouse liver microsomes, read-out: LM_NADPH t1/2; for % compound remaining at last time-point, LM_NADPH: mouse liver microsomes, 4.6 μM, 60 min. The method, then:
Pooled CD1 mouse (M1000, male), IGS Sprague-Dawley rat (R1000, male), and human (H1000, male) liver microsomes were purchased from SEKISUI XenoTech. 10 mM DMSO stock solution of the test compound (39 or 50) was preincubated at 37 °C for 15 min with mouse, rat, or human liver microsomes in 0.1 M Tris-HCl buffer (pH 7.5) with 10% DMSO. The final concentration was 4.6 μM. After preincubation, the cofactor (NADPH) was added to the incubation mixture, and the incubation was continued at 37 °C for 1 h. At each time point (0, 5, 15, 30, and 60 min), 30 μL of incubation mixture was diluted with 200 μL cold CH3CN spiked with 200 nM of an appropriate internal standard, followed by centrifugation at 3.270g for 15 min. The supernatant was further diluted with H2O (1:1) for analysis. A reference incubation mixture of each specie (microsomes without cofactors) was prepared for each test compound and analyzed at t = 0 and 60 min in order to verify the compound stability in the matrix. The two time points were diluted as for the time points of the incubation mixture above. The supernatants were analyzed by LC–MS/MS on a Waters ACQUITY UPLC-MS TQD system consisting of a triple quadrupole detector (TQD) mass spectrometer equipped with an electrospray ionization interface and a photodiode array eλ detector (PDA) from Waters Inc. (Milford, MA, USA). Electrospray ionization was applied in positive mode. Compound-dependent parameters as MRM transitions and collision energy were developed for each compound. The analyses were run on an ACQUITY UPLC BEH C18 (50 × 2.1 mm ID, particle size 1.7 μm) with a VanGuard BEH C18 precolumn (5 × 2.1 mm ID, particle size 1.7 μm) at 40 °C, using H2O + 0.1% HCOOH (A) and CH3CN + 0.1% HCOOH (B) as the mobile phase. The percentage of test compound remaining at each time point relative to t = 0 was calculated by the response factor on the basis of the internal standard peak area. The percentage of test compound versus time was plotted and fitted by GraphPad Prism (GraphPad Software, Version 5 for Windows, CA, USA, www.graphpad.com) to estimate the compound’s half-life (t1/2), which was reported as mean value along with the standard deviation (n = 3).

This is an account of results in PMC8474119, “Discovery and SAR Evolution of Pyrazole Azabicyclo[3.2.1]octane Sulfonamides as a Novel Class of Non-Covalent N-Acylethanolamine-Hydrolyzing Acid Amidase (NAAA) Inhibitors for Oral Administration” (Journal of Medicinal Chemistry, 2021).

With `CCCCc1ccc(O[C@H]2C[C@H]3CC[C@@H](C2)N3S(=O)(=O)c2c(C)n[nH]c2C)cc1` [Compound 39, (1R,3r,5S)-3-(4-Butylphenoxy)-8-((3,5-dimethyl-1H-pyrazol-4-yl)sulfonyl)-8-azabicyclo[3.2.1]octane], in series [1], the “% compound remaining at last time-point, plasma” value was 93% and the half-life at 2 μM is > 2 h. Moreover, in series [2], the half-life at 4.6 μM is > 1 h and the “% compound remaining at last time-point, LM_NADPH” value turned out to be 93%.
`CCOCc1cnc(O[C@H]2C[C@H]3CC[C@@H](C2)N3S(=O)(=O)c2c(C)n[nH]c2C)cn1` [Compound 50, (1R,3r,5S)-8-((3,5-Dimethyl-1H-pyrazol-4-yl)sulfonyl)-3-((5-(ethoxymethyl)pyrazin-2-yl)oxy)-8-azabicyclo[3.2.1]octane]: in series [1], the “% compound remaining at last time-point, plasma” value came to 93% and the half-life at 2 μM was > 2 h. In series [2], the half-life at 4.6 μM is > 1 h and the “% compound remaining at last time-point, LM_NADPH” value is on record as 55%.
